Data from patent US12390441B2, “Immunomodulating o-het/aryl azalides” (Zoetis Services LLC, priority 2020, dated 2025).

What was measured:
Experiment in all cases: Whole blood assay, LPS stimulation, MSD cytokine detection
IL-1β = format: cell-based, bovine; settings: fresh whole bovine blood, LPS stimulation; drug concentration giving overstimulation (OS) of IL-1β
Experimental: (§1) Compounds of the invention were evaluated against a positive control for their ability to inhibit LPS-induced IL-1p and TNF-α as an overall evaluation of relative potency and modulation of target pathways.
(§2) In the bovine whole blood in vitro screening assay the inhibition of TNFα as induced by stimulation by lipopolysaccharide (LPS) and as measured by half the maximal inhibitory concentration (IC50) is recognized as the primary biomarker of immunomodulation potency upon pretreatment with the compounds of the invention. IL-1β is a mediator of the inflammation response and is involved in a number of cellular activities including proliferation, differentiation and apoptosis. IL-1β is also released upon cellular stress or cytotoxicity or upon TLR stimulation. In the bovine whole blood assay the stimulation of IL-1β release upon increasing concentration of test compound is seen as a potential cellular toxicity signal as induced by the test compound. In order to estimate a therapeutic index from the in vitro assay a differential between the TNFα IC50 (immunomodulation potency) versus the perceived cellular toxicity concentration (IL-1β release or overstimulation) was utilized. […] As the in vitro assay index approaches 1 it is proposed that the balance between immunomodulation and cytotoxicity would be too narrow in order to achieve an efficacious dose in vivo.

TNF-α = format: cell-based; settings: fresh whole bovine blood
Experimental: as §1, §2

IL-6 = format: cell-based; settings: fresh whole bovine blood

IC50 (TNF-α)	IC50 (IL-6)	Compound	IL-1ß OS of LPS (IL-1β)
12 µM	18 µM	CC[C@H]1OC(=O)[C@H](C)[C@@H](O)[C@H](C)[C@@H](O[C@@H]2O[C@H](C)C[C@H](N(C)C(=O)N(C)c3ccccc3)[C@H]2Oc2ccc3ncccc3c2)[C@](C)(O)C[C@@H](C)CN(C)[C@H](C)[C@@H](O)[C@]1(C)O [Example C-35]	>250 µM
2 µM	10 µM	CCOc1cccc(O[C@H]2[C@H](O[C@@H]3[C@@H](C)[C@H](O)[C@@H](C)C(=O)O[C@H](CC)[C@@](C)(O)[C@H](O)[C@@H](C)NC[C@H](C)C[C@@]3(C)O)O[C@H](C)C[C@@H]2N(C)C(=O)N(C)c2ccc(N(C)C)cc2)c1 [Example C-36]	16 µM
5 µM	< 1 µM	CCOc1cccc(O[C@H]2[C@H](O[C@@H]3[C@@H](C)[C@H](O)[C@@H](C)C(=O)O[C@H](CC)[C@@](C)(O)[C@H](O)[C@@H](C)NC[C@H](C)C[C@@]3(C)O)O[C@H](C)C[C@@H]2N(C)C(=O)N(C)c2ccccc2)c1 [Example C-37]	16 µM
5 µM	26 µM	CC[C@H]1OC(=O)[C@H](C)[C@@H](O)[C@H](C)[C@@H](O[C@@H]2O[C@H](C)C[C@H](N(C)C(=O)N(C)c3ccccc3)[C@H]2Oc2ccccc2Cl)[C@](C)(O)C[C@@H](C)CN[C@H](C)[C@@H](O)[C@]1(C)O [Example C-38]	16 µM
5 µM	12 µM	CC[C@H]1OC(=O)[C@H](C)[C@@H](O)[C@H](C)[C@@H](O[C@@H]2O[C@H](C)C[C@H](N(C)C(=O)N(C)c3ccccc3)[C@H]2Oc2cc(F)c(OC)c(F)c2)[C@](C)(O)C[C@@H](C)CN[C@H](C)[C@@H](O)[C@]1(C)O [Example C-42]	16 µM
21 µM	32 µM	CC[C@H]1OC(=O)[C@H](C)[C@@H](O)[C@H](C)[C@@H](O[C@@H]2O[C@H](C)C[C@H](N(C)C(=O)N(C)c3ccc(C#N)cc3)[C@H]2Oc2ccccc2Cl)[C@](C)(O)C[C@@H](C)CN[C@H](C)[C@@H](O)[C@]1(C)O [Example C-43]	16 µM
181 µM	136 µM	CC[C@H]1OC(=O)[C@H](C)[C@@H](O)[C@H](C)[C@@H](O[C@@H]2O[C@H](C)C[C@H](N(C)C(=O)N(C)c3ccccc3)[C@H]2Oc2cc(F)c(OC)c(F)c2)[C@](C)(O)C[C@@H](C)CN(C)[C@H](C)[C@@H](O)[C@]1(C)O [Example C-49]	6 µM
40 µM	148 µM	CC[C@H]1OC(=O)[C@H](C)[C@@H](O)[C@H](C)[C@@H](O[C@@H]2O[C@H](C)C[C@H](N(C)C(=O)N3CCOc4ccccc43)[C@H]2Oc2ccccc2)[C@](C)(O)C[C@@H](C)CN(C)[C@H](C)[C@@H](O)[C@]1(C)O [Example D-2]	16 µM
20 µM	50 µM	CC[C@H]1OC(=O)[C@H](C)[C@@H](O)[C@H](C)[C@@H](O[C@@H]2O[C@H](C)C[C@H](N(C)C(=O)N3CCOc4ccccc43)[C@H]2Oc2ccccc2)[C@](C)(O)C[C@@H](C)CN[C@H](C)[C@@H](O)[C@]1(C)O [Example D-3]	16 µM

Further lines, the compound ahead of its results:

Compound	IC50 (TNF-α)	IC50 (IL-6)	IL-1ß OS of LPS (IL-1β)
CC[C@H]1OC(=O)[C@H](C)[C@@H](O)[C@H](C)[C@@H](O[C@@H]2O[C@H](C)C[C@H](N(C)C(=O)N(C)C)[C@H]2Oc2ccc(F)cc2C)[C@](C)(O)C[C@@H](C)CN[C@H](C)[C@@H](O)[C@]1(C)O [Example C-25]	59 µM	25 µM	40 µM
CC[C@H]1OC(=O)[C@H](C)[C@@H](O)[C@H](C)[C@@H](O[C@@H]2O[C@H](C)C[C@H](N(C)C(=O)N(C)c3ccccc3)[C@H]2Oc2ccc(Cl)nc2)[C@](C)(O)C[C@@H](C)CN[C@H](C)[C@@H](O)[C@]1(C)O [Example C-33]	6 µM	< 1 µM	16 µM
CC[C@H]1OC(=O)[C@H](C)[C@@H](O)[C@H](C)[C@@H](O[C@@H]2O[C@H](C)C[C@H](N(C)C(=O)N(C)c3ccccc3)[C@H]2Oc2ccc(OC)c(OC(C)C)c2)[C@](C)(O)C[C@@H](C)CN[C@H](C)[C@@H](O)[C@]1(C)O [Example C-34]	28 µM	16 µM	16 µM
CC[C@H]1OC(=O)[C@H](C)[C@@H](O[C@H]2C[C@@](C)(OC)[C@](O)(CNCC3CC3)[C@H](C)O2)[C@H](C)[C@@H](O[C@@H]2O[C@H](C)C[C@H](N(C)C)[C@H]2Oc2ccc(F)cc2)[C@](C)(O)C[C@@H](C)CN[C@H](C)[C@@H](O)[C@]1(C)O [Example E-37]	6 µM	17 µM	16 µM
CC[C@H]1OC(=O)[C@H](C)[C@@H](O[C@H]2C[C@@](C)(OC)[C@](O)(CNn3ccnc3)[C@H](C)O2)[C@H](C)[C@@H](O[C@@H]2O[C@H](C)C[C@H](N(C)C)[C@H]2Oc2ccccc2)[C@](C)(O)C[C@@H](C)CN[C@H](C)[C@@H](O)[C@]1(C)O [Example E-40]	11 µM	55 µM	40 µM
CCCNC[C@]1(O)[C@H](C)O[C@@H](O[C@H]2[C@H](C)[C@@H](O[C@@H]3O[C@H](C)C[C@H](N(C)C)[C@H]3Oc3ccc4ncccc4c3)[C@](C)(O)C[C@@H](C)CN[C@H](C)[C@@H](O)[C@](C)(O)[C@@H](CC)OC(=O)[C@@H]2C)C[C@@]1(C)OC [Example E-69]	19 µM	68 µM	16 µM
CCCNC[C@]1(O)[C@H](C)O[C@@H](O[C@H]2[C@H](C)[C@@H](O[C@@H]3O[C@H](C)C[C@H](NC)[C@H]3Oc3ccccc3OCC)[C@](C)(O)C[C@@H](C)CN[C@H](C)[C@@H](O)[C@](C)(O)[C@@H](CC)OC(=O)[C@@H]2C)C[C@@]1(C)OC [Example E-78]	16 µM	54 µM	17 µM
CCCNC[C@]1(O)[C@H](C)O[C@@H](O[C@H]2[C@H](C)[C@@H](O[C@@H]3O[C@H](C)C[C@H](NC)[C@H]3Oc3ccc(S(C)(=O)=O)cc3)[C@](C)(O)C[C@@H](C)CN[C@H](C)[C@@H](O)[C@](C)(O)[C@@H](CC)OC(=O)[C@@H]2C)C[C@@]1(C)OC [Example E-80]	45 µM	65 µM	>250 µM
CCCNC[C@]1(O)[C@H](C)O[C@@H](O[C@H]2[C@H](C)[C@@H](O[C@@H]3O[C@H](C)C[C@H](NC)[C@H]3Oc3ccc(C(N)=O)cc3)[C@](C)(O)C[C@@H](C)CN[C@H](C)[C@@H](O)[C@](C)(O)[C@@H](CC)OC(=O)[C@@H]2C)C[C@@]1(C)OC [Example E-110]	125 µM	175 µM	>500 µM
CC[C@H]1OC(=O)[C@H](C)[C@@H](O[C@H]2C[C@@](C)(OC)[C@](O)(CN(C)CCN(C)C)[C@H](C)O2)[C@H](C)[C@@H](O[C@@H]2O[C@H](C)C[C@H](N(C)C)[C@H]2Oc2ccc(F)cc2)[C@](C)(O)C[C@@H](C)CN[C@H](C)[C@@H](O)[C@]1(C)O [Example E-113]	17 µM	40 µM	40 µM
CC[C@H]1OC(=O)[C@H](C)[C@@H](O[C@H]2C[C@@](C)(OC)[C@](O)(CNCCN(C)C)[C@H](C)O2)[C@H](C)[C@@H](O[C@@H]2O[C@H](C)C[C@H](N(C)C)[C@H]2Oc2ccc(F)cc2)[C@](C)(O)C[C@@H](C)CN[C@H](C)[C@@H](O)[C@]1(C)O [Example E-114]	13 µM	52 µM	40 µM
CC[C@H]1OC(=O)[C@H](C)[C@@H](O[C@H]2C[C@@](C)(OC)[C@](O)(CNCCOC)[C@H](C)O2)[C@H](C)[C@@H](O[C@@H]2O[C@H](C)C[C@H](N(C)C)[C@H]2Oc2ccc(F)cc2)[C@](C)(O)C[C@@H](C)CN[C@H](C)[C@@H](O)[C@]1(C)O [Example E-116]	5 µM	10 µM	16 µM
CC[C@H]1OC(=O)[C@H](C)[C@@H](O[C@H]2C[C@@](C)(OC)[C@](O)(CNC(C)C)[C@H](C)O2)[C@H](C)[C@@H](O[C@@H]2O[C@H](C)C[C@H](N(C)C)[C@H]2Oc2ccc(F)cc2)[C@](C)(O)C[C@@H](C)CN[C@H](C)[C@@H](O)[C@]1(C)O [Example E-117]	6 µM	11 µM	16 µM
CC[C@H]1OC(=O)[C@H](C)[C@@H](O[C@H]2C[C@@](C)(OC)[C@](O)(CNC3CCOCC3)[C@H](C)O2)[C@H](C)[C@@H](O[C@@H]2O[C@H](C)C[C@H](N(C)C)[C@H]2Oc2ccccc2)[C@](C)(O)C[C@@H](C)CN[C@H](C)[C@@H](O)[C@]1(C)O [Example E-120]	8 µM	11 µM	16 µM
CC[C@H]1OC(=O)[C@H](C)[C@@H](O[C@H]2C[C@@](C)(OC)[C@](O)(CNC3CC3)[C@H](C)O2)[C@H](C)[C@@H](O[C@@H]2O[C@H](C)C[C@H](NC)[C@H]2Oc2ccccc2)[C@](C)(O)C[C@@H](C)CN[C@H](C)[C@@H](O)[C@]1(C)O [Example E-125]	5 µM	8 µM	16 µM
CC[C@H]1OC(=O)[C@H](C)[C@@H](O[C@H]2C[C@@](C)(OC)[C@](O)(CNC(C)C)[C@H](C)O2)[C@H](C)[C@@H](O[C@@H]2O[C@H](C)C[C@H](NC)[C@H]2Oc2ccccc2)[C@](C)(O)C[C@@H](C)CN[C@H](C)[C@@H](O)[C@]1(C)O [Example E-127]	19 µM	44 µM	40 µM
